Data set [1] in a line: Acid stability, 0.1N methanolic HCl at 37° C. for 2 hours. It counts as physicochemical. The method, then:
To determine the stability of the C-glucopyranosiduronate linkage towards acidic conditions, samples of 4-HPR-O-glucuronide, 4-(retinamido)phenyl-C-glucuronide and 4-(retinamido)benzyl-C-glucuronide were treated with 0.1N methanolic HCl at 37° C. for 2 hours.

Data set [2] has as its target T1, β-glucuronidase (Homo sapiens, UniProt P08236).
T1 sequence (P08236 23-651): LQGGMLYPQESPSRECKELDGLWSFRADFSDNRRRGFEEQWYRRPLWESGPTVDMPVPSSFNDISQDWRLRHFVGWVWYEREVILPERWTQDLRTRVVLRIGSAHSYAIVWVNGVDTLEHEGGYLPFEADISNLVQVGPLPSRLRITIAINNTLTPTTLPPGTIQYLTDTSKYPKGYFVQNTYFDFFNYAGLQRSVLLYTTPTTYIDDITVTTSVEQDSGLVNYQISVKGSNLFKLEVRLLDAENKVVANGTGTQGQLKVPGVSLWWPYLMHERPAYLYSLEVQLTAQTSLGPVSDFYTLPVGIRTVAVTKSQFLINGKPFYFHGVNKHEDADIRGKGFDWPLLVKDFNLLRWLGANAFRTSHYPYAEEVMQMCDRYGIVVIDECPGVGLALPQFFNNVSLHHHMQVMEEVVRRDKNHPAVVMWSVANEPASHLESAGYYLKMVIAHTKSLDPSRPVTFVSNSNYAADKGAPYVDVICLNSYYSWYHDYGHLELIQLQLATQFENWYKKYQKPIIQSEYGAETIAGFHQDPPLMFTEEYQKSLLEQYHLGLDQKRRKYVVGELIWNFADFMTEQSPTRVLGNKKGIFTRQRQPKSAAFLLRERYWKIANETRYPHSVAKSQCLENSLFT
Briefly: Stability toward β-glucuronidase mediated hydrolysis. The data set is classed as in vitro ADME. Conditions: β-glucuronidase. The method, then: Similarly 1-(D-glucopyranosyluronosyl) retinamide and RAG were evaluated for their stability toward β-glucuronidase medicated hydrolysis under the same conditions as described above.

Data set [3] has as its target T2, mRARγ (Mus musculus, UniProt P18911).
T2 construct: made in house; host or cells: Spodoptera frugiperda insect cells, baculovirus (whole cell extract)
T2 sequence (P18911 1-458): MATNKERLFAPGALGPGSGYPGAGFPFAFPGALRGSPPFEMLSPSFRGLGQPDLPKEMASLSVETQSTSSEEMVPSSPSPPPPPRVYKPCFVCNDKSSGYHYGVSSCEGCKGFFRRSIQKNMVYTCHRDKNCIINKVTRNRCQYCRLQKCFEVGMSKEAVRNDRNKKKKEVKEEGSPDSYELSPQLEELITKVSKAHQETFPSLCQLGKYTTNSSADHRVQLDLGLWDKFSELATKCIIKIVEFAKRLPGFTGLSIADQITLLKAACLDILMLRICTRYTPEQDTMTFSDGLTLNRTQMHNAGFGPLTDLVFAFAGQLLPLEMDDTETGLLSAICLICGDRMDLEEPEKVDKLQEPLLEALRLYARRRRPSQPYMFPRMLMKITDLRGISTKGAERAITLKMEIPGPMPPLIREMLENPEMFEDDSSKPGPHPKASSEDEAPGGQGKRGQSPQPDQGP
Briefly: Drug competition with (3H)retinoic acid binding, mRARγ. The following applies: read-out: percent reduction of binding of the (3H)retinoic acid, mRARγ; 1 μM drug; 5 nM [3H]RA.

The conditions of data set [4]: background statement; cited from earlier work.
Data set [5] has as its target T3, mRARβ (Mus musculus, UniProt P22605).
T3 construct: made in house; host or cells: Spodoptera frugiperda insect cells, baculovirus (whole cell extract)
T3 sequence (P22605 1-448 isoform P22605-3): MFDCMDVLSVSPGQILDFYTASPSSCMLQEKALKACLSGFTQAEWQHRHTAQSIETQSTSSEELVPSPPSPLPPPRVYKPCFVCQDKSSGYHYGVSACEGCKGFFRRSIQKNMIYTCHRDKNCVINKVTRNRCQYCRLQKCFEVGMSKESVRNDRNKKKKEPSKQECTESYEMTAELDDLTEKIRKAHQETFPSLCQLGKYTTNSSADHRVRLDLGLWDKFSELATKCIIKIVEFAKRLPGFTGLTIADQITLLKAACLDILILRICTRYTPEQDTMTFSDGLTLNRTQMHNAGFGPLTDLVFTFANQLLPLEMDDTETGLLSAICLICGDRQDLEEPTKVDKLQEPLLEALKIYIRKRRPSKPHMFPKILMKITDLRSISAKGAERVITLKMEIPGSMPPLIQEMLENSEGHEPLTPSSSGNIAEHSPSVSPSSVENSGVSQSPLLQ
Kind of data set: Drug competition with (3H)retinoic acid binding, mRARβ. The following applies: read-out: percent reduction of binding of the (3H)retinoic acid, mRARβ; 1 μM drug; 5 nM [3H]RA.

For data set [6], the system named is MCF-7 human mammary cell tumor culture. The following applies: Bhatnagar et al.; cited from earlier work.
For data set [7], the target named is T4, mRARα (Mus musculus, UniProt P11416).
T4 construct: made in house; host or cells: Spodoptera frugiperda insect cells, baculovirus (whole cell extract)
T4 sequence (P11416 1-462): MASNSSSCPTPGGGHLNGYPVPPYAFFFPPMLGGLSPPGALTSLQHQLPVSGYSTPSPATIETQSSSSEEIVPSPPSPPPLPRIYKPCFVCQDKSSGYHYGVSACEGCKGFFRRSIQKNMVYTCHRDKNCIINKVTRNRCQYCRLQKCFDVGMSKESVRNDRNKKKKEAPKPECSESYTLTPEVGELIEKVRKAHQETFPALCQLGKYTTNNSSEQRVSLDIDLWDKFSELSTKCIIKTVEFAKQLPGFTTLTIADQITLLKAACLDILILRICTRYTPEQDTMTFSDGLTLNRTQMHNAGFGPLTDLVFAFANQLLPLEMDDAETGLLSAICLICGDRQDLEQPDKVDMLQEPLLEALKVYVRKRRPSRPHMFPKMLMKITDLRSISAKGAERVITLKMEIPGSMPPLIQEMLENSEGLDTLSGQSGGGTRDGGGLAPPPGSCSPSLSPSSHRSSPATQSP
Briefly: Drug competition with (3H)retinoic acid binding, mRARα. Conditions: read-out: percent reduction of binding of the (3H)retinoic acid, mRARα.

Data set [8] concerns the target T1, β-glucuronidase. Conditions: background statement; cited from earlier work.
Data set [9] relates to MCF-7 cells. Kind of data set: Growth inhibition of MCF-7 human mammary tumor cells. It counts as cell-based. The following applies: Homo sapiens, MCF7, 168 h, 7 days, read-out: ED50 for growth inhibition of MCF-7 cells. The method, then: The antiproliferative activity of the drugs in MCF-7 human mammary tumor cell culture models were determined.
The MCF-7 cells were obtained originally from the Michigan Cancer Foundation. The cells were routinely grown as monolayers in T-25 plastic tissue culture flasks from Falcon, in Oxnard, Calif. containing 5.0 mL of B-10 medium consisting of Minimum Essential Medium (MEM, Earle's Base) supplemented with 1.0 mM MEM non-essential amino acid, 2.0 mM 1-glutamine,10% fetal bovine serum (FBS), and antibiotics. Culture conditions included a humidified atmosphere of 5% CO2 at 37° C. One-half of the medium was replenished twice a week. Cells were harvested by trypsinization upon confluency. All variables were evaluated in triplicate.
For the growth inhibition assay the MCF-7 cells were plated in 24-well plates at a density of 1.5×10^4 cells/cm^2. […] Control cultures were treated with an equivalent volume of absolute ethanol. On day 7 the cells were harvested by trypsinization and viability was assessed by trypan blue exclusion according to Ueda, H. et al. Cancer 1980, 46, 2203-2209. Total cell counts were obtained using a hemocytometer as well as a the Coulter Counter.

Data set [10] deals with carcinogen-induced rat mammary tumors. Conditions: cited from earlier work.
For data set [11], the system named is cultured human breast cancer cells. The following applies: Bhatnagar et al.; cited from earlier work.
The subject of data set [12] is cancer. Conditions: literature; cited from earlier work.
Data set [13] has as its system DMBA-Induced Rat Mammary Tumors. Kind of data set: Effect on progression of DMBA-induced rat mammary tumors. Conditions: 1 mmol/Kg in diet. The data set is classed as in vivo. From the text: The control rats received DMBA intubation only and AIN-76A rat chow.
The test system of data set [14] is hamster tracheal in vitamin A deficient epithelial tissue. The following applies: Newton et al.; cited from earlier work.
Substrate in data set [15]: CC1=C(/C=C/C(C)=C/C=C/C(C)=C/C(=O)Nc2ccc(O[C@@H]3O[C@H](C(=O)O)[C@@H](O)[C@H](O)[C@H]3O)cc2)C(C)(C)CCC1
Briefly: Inhibition of β-glucuronidase mediated hydrolysis of 4-HPR-O-glucuronide. The data set is classed as biochemical. Conditions: other: 4-HPR-O-glucuronide as substrate. An excerpt: Chem. Soc., (1954), 76, 4872-4877.

Where two headings read alike, the source gives them in different places.

For orientation: Km means the substrate concentration at which the rate is half of its maximum.

For `CC1=C(/C=C/C(C)=C/C=C/C(C)=C/C(=O)Nc2ccc(O[C@@H]3O[C@H](C(=O)O)[C@@H](O)[C@H](O)[C@H]3O)cc2)C(C)(C)CCC1` [4-HPR-O-glucuronide, N-(4-hydroxyphenyl)retinamide-O-glucuronide], in [1], the “acid hydrolysis (stability)” value is “had undergone substantial hydrolysis of the ether linkage”. Moreover, the “hydrolysis by β-glucuronidase” value in [2] was “is hydrolysed to glucuronic acid and the aglycone by β-glucuronidase”; in data set [8], “also by the enzyme β-glucuronidase”. Moreover, the inhibition at 1 µM in data set [3] worked out at 7%; in data set [5] it was 4%; in [7] (1 μM drug, 5 nM [3H]RA) it was 14%. The “stability in acidic media” value in data set [4] is “hydrolyzed in acidic media”. Also, in data set [6], the “antiproliferative activity and toxicity vs 4-HPR” value is “greater antiproliferative activity and less toxicity”. For the same molecule, the “in vivo half life” value in data set [8] is given as “quite limited”.

`CC1=C(/C=C/C(C)=C/C=C/C(C)=C/C(=O)Nc2ccc(O)cc2)C(C)(C)CCC1` [Example 4-HPR, N-(4-hydroxyphenyl) retinamide, reference compound]: the IC50 in data set [9] (Assay 1) was determined as 2.8 µM; in [9] (Assay 2) it was 1.5 µM; in data set [9] (Assay 3) it was 33 µM. For the same molecule, the “breast cancer chemopreventive activity combined with calcium glucarate” value in [10] is on record as “synergistically exerts an increased breast cancer chemopreventive activity”. Moreover, the inhibition at 1 µM in [3] was found to be 7%; in [5] it was 5%; in data set [7] (1 μM drug, 5 nM [3H]RA), 18%. In data set [11], the cytotoxicity entry is on record as “significant cytotoxicity”. Further, the cancer preventive activity entry in [12] is on record as “displays chemopreventive activity in breast cancer”.

As for `CC1=C(/C=C/C(C)=C/C=C/C(C)=C/C(=O)O)C(C)(C)CCC1` [retinoic acid, reference compound], in [13] (15 mg DMBA oral), the tumor latency was 49 days. In [13] (110 days post intubation), this molecule displayed a tumor incidents of 83% and a tumor number/rat of 1.17 tumors per rat. For the same molecule, in [3], the inhibition at 1 µM was 100%. In addition, in [14], the “reversal of metaplastic condition” value is listed as “can reverse the metaplastic condition of hamster tracheal in vitamin A deficient epithelial tissue”. Besides, the cancer preventive activity result in data set [12] is recorded as “display cancer preventive activity”. The inhibition at 1 µM in data set [7] is 100%.

B1: β-glucuronidase (Homo sapiens) (protein)
chain: LQGGMLYPQESPSRECKELDGLWSFRADFSDNRRRGFEEQWYRRPLWESGPTVDMPVPSSFNDISQDWRLRHFVGWVWYEREVILPERWTQDLRTRVVLRIGSAHSYAIVWVNGVDTLEHEGGYLPFEADISNLVQVGPLPSRLRITIAINNTLTPTTLPPGTIQYLTDTSKYPKGYFVQNTYFDFFNYAGLQRSVLLYTTPTTYIDDITVTTSVEQDSGLVNYQISVKGSNLFKLEVRLLDAENKVVANGTGTQGQLKVPGVSLWWPYLMHERPAYLYSLEVQLTAQTSLGPVSDFYTLPVGIRTVAVTKSQFLINGKPFYFHGVNKHEDADIRGKGFDWPLLVKDFNLLRWLGANAFRTSHYPYAEEVMQMCDRYGIVVIDECPGVGLALPQFFNNVSLHHHMQVMEEVVRRDKNHPAVVMWSVANEPASHLESAGYYLKMVIAHTKSLDPSRPVTFVSNSNYAADKGAPYVDVICLNSYYSWYHDYGHLELIQLQLATQFENWYKKYQKPIIQSEYGAETIAGFHQDPPLMFTEEYQKSLLEQYHLGLDQKRRKYVVGELIWNFADFMTEQSPTRVLGNKKGIFTRQRQPKSAAFLLRERYWKIANETRYPHSVAKSQCLENSLFT
For B1, in data set [15], the Km is 184.5 µM.
